Reference: patent US20230355727A1, “TREATMENT OF RETINAL DISORDERS” (Tel HaShomer Medical Research Infrastructure and Services …, priority 2020, published 2023)
Entries after “also recorded” stand apart in the source; their conditions may differ. Peptide text beside a SMILES is read from it. * marks the point of attachment. Tos = Cc1ccc(S(=O)(=O)*)cc1; CH2Cl = ClC*

Legend:
[1] = system: diabetic rats; details: STZ-induced diabetes; Shavit-Stein et al. PLoS One 2019; cited from earlier work
[2] = system: glioma cell lines; details: inhibition of thrombin activity and blocking PAR1 activation; Shavit-Stein et al. 2018; cited from earlier work
[3] = system: STZ-induced diabetic C57BL/6 mice; test: Retinal function by ERG in STZ-induced diabetic mice; assay type: in vivo, mouse
Protocol: Diabetes induction: Diabetes was induced in mice at age of 8 weeks by a single intraperitoneal injection of 150 mg/Kg STZ (Sigma-Aldrich). Blood glucose concentration was measured from the tail vein using Xpress-i glucometer (Nova Biomedical). Hyperglycemia was defined as blood glucose >[…] [Shavit-Stein et al. (2019) PLoS One 14, e0219453].
Electroretinogram (ERG): Mice were dark-adapted for 16 hours. ERG responses to light flashes at 5 increasing intensities (0.023, 0.249, 2.44, 7.8 and 23.5 cd-s/m^2) are recorded from both eyes simultaneously. Light-adapted ERG is similarly performed following 5 minutes light adaptation [Edelshtain et al. (2019) Algal Research 43, 101607].
C57BL/6 mice received either sham (PBS, n=5) or PARIN5 (100 nM in PBS, n=7) treatment for 7 days, starting at three days after diabetes induction by STZ injection. Retinal function was determined by ERG. Treatment included intraperitoneal (IP) injection (0.5 µl/gram, once a day) and eye drops (10 µl/eye, once a day).
In further experiments, STZ-induced diabetic were treated with eye drops, 100 nM PARIN5 in PBS (10 µl/eye, once a day), for 5 weeks. Non-diabetic mice and diabetic non-treated mice served as control.

[4] = system: ALS animal model SOD-1; details: SOD-1 ALS animal model; cited from earlier work

N=C(N)c1ccc(CC(NC(=O)CNS(=O)(=O)c2ccc3ccccc3c2)C(=O)N2CCCCC2)cc1 (racemic) [NAPAP, Nα-(2-naphthyl-sulphonyl-glycyl)-DL-p-amidinophenylalanyl-piperidine]
Nerve conduction velocity in diabetic rats [1]: prevent the decreased nerve conduction velocity | Growth of glioma cell lines [2]: significantly inhibits their growth

Cc1ccc(S(=O)(=O)N[C@H](C(=O)N[C@@H](CC(C)C)C(=O)N[C@@H](CC(=O)O)C(=O)N2CCC[C@H]2C(=O)N[C@@H](CCCNC(=N)N)C(=O)CCl)[C@@H](C)O)cc1 [PARIN5, ^37TLDPR^41-CMK] (Tos-TLDPR-CH2Cl)
Retinal function by ERG b-wave after 5 weeks of daily eye drops, versus control non-diabetic mice ([3]; 100 nM in PBS eye drops, 10 µl/eye once a day, 5 weeks, measured 2 and 5 weeks after STZ, all p>0.3, FIG. 6): no significant differences; also recorded: protected the mouse retinal function | Retinal function by ERG (b-wave) after 7-day treatment ([3]; 100 nM in PBS, IP injection 0.5 µl/gram plus eye drops 10 µl/eye, once a day, 7 days, from three days after STZ, versus sham PBS, FIG. 5): preserved mouse retinal function

CC(C)c1ccc(Cn2ccc3c4c(N)nc(NC5CC5)nc4ccc32)cc1.Cl.Cl [SCH79797, N3..Cyclopropyl-7..[[4..(1.. methylethyl)phenyl]methyl]-7H-pyrrolo[3,2-f]quinazoline-1,3-diamine dihydrochloride]
Life span of ALS model animals [4]: increase the life span of these ALS model animals significantly

Cc1ccc(S(=O)(=O)N[C@@H](CCCCN)C(=O)CCl)cc1 [TLCK, N-alpha-tosyl-L-lysine chloromethyl ketone]
Life span of ALS model animals [4]: increase the life span of these ALS model animals significantly
